Data: ChEMBL document CHEMBL5579840, “Optimization of diastereomeric dihydropyridines as antimalarials” (Eur J Med Chem, 2024)

Tests used:
Plasmodium falciparum [1] = assay: Antimalarial activity against chloroquine-sensitive Plasmodium falciparum 3D7 infected in erythroctes incubated for 72 hrs by SYBR green 1 based spectrofluorometer; format: functional, organism-based, Erythrocyte
Plasmodium falciparum [2] = assay: Antimalarial activity against chloroquine-resistant Plasmodium falciparum K1 infected in erythroctes incubated for 72 hrs by SYBR green 1 based spectrofluorometer; format: functional, organism-based, Erythrocyte
[3] = Plasmodium falciparum, 3D7, Erythrocyte, 72 h
[4] = Plasmodium falciparum, K1, Erythrocyte, 72 h

Row | SMILES | EC50 (Plasmodium falciparum [1]; erythrocyte) | EC50 (Plasmodium falciparum [2]; erythrocyte) | EC50 (Plasmodium falciparum [1]; [3]) | EC50 (Plasmodium falciparum [2]; [4])
1 | COC(=O)C1=C(C)NC2=C(C(=O)OC(c3ccc(OC)c(OC)c3)C2)C1c1ccccc1Cl (mixture of isomers) | > 9.4 µM | > 9.4 µM |  | 
2 | CCOC(=O)C1=C(C)NC2=C(C(=O)OC(c3ccc(OC)c(OC)c3)C2)C1c1ccc(C)cc1 (mixture of isomers) | 1.25 µM | 1.61 µM |  | 
3 | CCOC(=O)C1=C(C)NC2=C(C(=O)CC(c3ccc(OC)c(OC)c3)C2)C1c1ccccc1Cl (mixture of isomers) | 0.0171 µM | 0.028 µM |  | 
4 | CCOC(=O)C1=C(C)NC2=C(C(=O)OC(c3ccccc3Cl)C2)C1c1ccccc1Cl (mixture of isomers) | > 6 µM | > 6 µM |  | 
5 | CCOC(=O)C1=C(C)NC2=C(C(=O)OC(c3ccc(Cl)c(OC)c3)C2)C1c1ccccc1Cl (mixture of isomers) | 0.595 µM | 0.345 µM |  | 
6 | CCOC(=O)C1=C(C)NC2=C(C(=O)CC(c3ccc(OC)c(OC)c3)C2)C1c1ccc(Cl)cc1 (mixture of isomers) | 0.0163 µM | 0.0189 µM |  | 
7 | CCCC1=C(C(=O)OCC)C(c2ccccc2Cl)C2=C(CC(c3ccc(OC)c(OC)c3)CC2=O)N1 (mixture of isomers) | 0.0023 µM | 0.0038 µM |  | 
8 | CCOC(=O)C1=C(c2ccccc2)NC2=C(C(=O)CC(c3ccc(OC)c(OC)c3)C2)C1c1ccccc1Cl (stereo in doubt; 35B) | 0.0405 µM | 0.0467 µM |  | 
9 | CCCC1=C(C(=O)OCC)C(c2ccc(Cl)cc2C)C2=C(CC(c3cc(OC)ccc3OC)CC2=O)N1 (stereo in doubt; 48B) | 0.0375 µM | 0.0468 µM |  | 
10 | CCOC(=O)C1=C(C)NC2=C(C(=O)OC(c3ccc(OC)c(OC)c3)C2)C1c1ccccc1 (mixture of isomers) | 0.18 µM | 0.12 µM |  | 
11 | CCOC(=O)C1=C(C)NC2=C(C(=O)OC(c3ccc(OC)c(OC)c3)C2)C1c1ccc(Cl)cc1 (stereo in doubt; 5B) | 0.0476 µM | 0.0538 µM |  | 
12 | CCCC1=C(C(=O)OCC)C(c2ccc(Cl)cc2C)C2=C(CC(c3ccc(Cl)c(OC)c3)CC2=O)N1 (mixture of isomers) | 0.0279 µM | 0.0489 µM |  | 
13 | CCOC(=O)C1=C(C)NC2=C(C(=O)OC(c3cccc(C)c3)C2)C1c1ccccc1Cl (stereo in doubt; 22B) | > 6 µM | > 6 µM |  | 
14 | CCOC(=O)C1=C(C)NC2=C(C(=O)OC(c3ccc(Cl)c(OC)c3)C2)C1c1ccc(Cl)cc1C (mixture of isomers) | 0.08 µM | 0.0732 µM |  | 
15 | CCOC(=O)C1=C(C(=O)OCC)C(c2ccccc2Cl)C2=C(CC(c3ccc(OC)c(OC)c3)OC2=O)N1 (stereo in doubt; 33B) | 0.119 µM | 0.0776 µM |  | 
16 | CCOC(=O)C1=C(C)NC2=C(C(=O)CC(c3cc(OC)c(OC)c(OC)c3)C2)C1c1ccccc1Cl (mixture of isomers) | 0.0036 µM | 0.0049 µM |  | 
17 | COc1ccc(C2CC3=C(C(=O)O2)C(c2ccccc2Cl)C(C(=O)OCc2ccccc2)=C(C)N3)cc1OC (stereo in doubt; 31B) | > 9.1 µM | > 9.1 µM |  | 
18 | CCOC(=O)C1=C(C)NC2=C(C(=O)CC(c3ccc(OC)c(OC)c3)C2)C1c1ccc(Cl)cc1C (mixture of isomers) | 0.0551 µM | 0.0385 µM |  | 
19 | CCN(CC)CCCC(C)Nc1ccnc2cc(Cl)ccc12 (configuration not stated) [CHLOROQUINE] |  |  | 0.048 µM | 1.36 µM
20 | CCOC(=O)C1=C(C)NC2=C(C(=O)OC(c3ccc(OC)c(OC)c3)C2)C1c1ccccc1Cl (mixture of isomers) | 0.372 µM | 0.323 µM |  | 

Row | SMILES | EC50 (Plasmodium falciparum [1]; erythrocyte) | EC50 (Plasmodium falciparum [2]; erythrocyte) | EC50 (Plasmodium falciparum [1]; [3]) | EC50 (Plasmodium falciparum [2]; [4])
21 | CCOC(=O)C1=C(C)NC2=C(C(=O)OC(c3ccc(OC)c(OC)c3)C2)C1c1ccc(Cl)cc1C (mixture of isomers) | 0.0195 µM | 0.0468 µM |  | 
22 | CCOC(=O)C1=C(C)NC2=C(C(=O)CC(c3ccc(Cl)c(OC)c3)C2)C1c1ccc(Cl)cc1C (mixture of isomers) | 0.0783 µM | 0.0691 µM |  | 
23 | CCOC(=O)C1=C(C)NC2=C(C(=O)OC(c3ccc(C)cc3)C2)C1c1ccccc1Cl (stereo in doubt; 23B) | > 6 µM | 1.58 µM |  | 
24 | CCOC(=O)C1=C(C)NC2=C(C(=O)OC(c3ccc(OC)c(OC)c3)C2)C1c1ccccc1OC (stereo in doubt; 9B) | 2.05 µM | > 5.5 µM |  | 
25 | CCOC(=O)C1=C(C)NC2=C(C(=O)OC(c3ccccc3)C2)C1c1ccccc1Cl (mixture of isomers) | > 10 µM |  |  | 
26 | CCOC(=O)C1=C(C)NC2=C(C(=O)OC(c3ccc(Cl)cc3)C2)C1c1ccccc1Cl (stereo in doubt; 20B) | 2.86 µM | 2.16 µM |  | 
27 | CCOC(=O)C1=C(C)NC2=C(C(=O)CC(c3ccc(OC)c(OC)c3)C2)C1c1ccc(Cl)cc1 (stereo in doubt; 36B) | 0.0103 µM | 0.0093 µM |  | 
28 | CCOC(=O)C1=C(C)NC2=C(C(=O)OC(c3cccc(OC)c3)C2)C1c1ccccc1Cl (stereo in doubt; 25B) | 0.626 µM | 0.363 µM |  | 
29 | CCOC(=O)C1=C(C)NC2=C(C(=O)CC(c3ccc(Cl)c(OC)c3)C2)C1c1ccccc1Cl (mixture of isomers) | 0.0477 µM | 0.0512 µM |  | 
30 | COCC1=C(C(=O)OC)C(c2ccc(Cl)cc2C)C2=C(CC(c3ccc(OC)c(OC)c3)OC2=O)N1 (mixture of isomers) | 0.112 µM | 0.0813 µM |  | 
31 | OC(c1cc(C(F)(F)F)nc2c(C(F)(F)F)cccc12)C1CCCCN1 (configuration not stated) [MEFLOQUINE] |  |  | 0.062 µM | 0.031 µM
32 | CCOC(=O)C1=C(C)NC2=C(C(=O)OC(c3ccccc3OC)C2)C1c1ccccc1Cl (stereo in doubt; 24B) | > 5.5 µM | > 5.5 µM |  | 
33 | CCOC(=O)C1=C(C)NC2=C(C(=O)OC(c3ccc(OC)c(OC)c3)C2)C1c1ccc(Br)cc1 (mixture of isomers) | 0.213 µM | 0.634 µM |  | 
34 | COc1ccc(C2CC3=C(C(=O)O2)C(c2ccccc2Cl)C(C(=O)OC(C)(C)C)=C(C)N3)cc1OC (mixture of isomers) |  | 2.65 µM |  | 
35 | COCC1=C(C(=O)OC)C(c2ccc(Cl)cc2)C2=C(CC(c3cc(OC)c(OC)c(OC)c3)OC2=O)N1 (mixture of isomers) | 0.0308 µM | 0.0436 µM |  | 
36 | CCOC(=O)C1=C(C(=O)OCC)C(c2ccccc2Cl)C2=C(CC(c3ccc(OC)c(OC)c3)OC2=O)N1 (mixture of isomers) | 0.0587 µM | 0.0222 µM |  | 
37 | CCCOC(=O)C1=C(C)NC2=C(C(=O)OC(c3ccc(OC)c(OC)c3)C2)C1c1ccccc1Cl (mixture of isomers) | 1.67 µM | 1.63 µM |  | 
38 | COc1ccc(C2CC3=C(C(=O)O2)C(c2ccccc2Cl)C(C(=O)OCc2ccccc2)=C(C)N3)cc1OC (mixture of isomers) | > 7.5 µM | > 7.5 µM |  | 
39 | CCCC1=C(C(=O)OCC)C(c2ccccc2Cl)C2=C(CC(c3ccc(OC)c(OC)c3)OC2=O)N1 (mixture of isomers) | 0.029 µM | 0.0155 µM |  | 
40 | CCOC(=O)C1=C(C)NC2=C(C(=O)OC(c3ccccc3)C2)C1c1ccccc1Cl (stereo in doubt; 17B) | > 11 µM |  |  | 

Row | SMILES | EC50 (Plasmodium falciparum [1]; erythrocyte) | EC50 (Plasmodium falciparum [2]; erythrocyte) | EC50 (Plasmodium falciparum [1]; [3]) | EC50 (Plasmodium falciparum [2]; [4])
41 | CCCC1=C(C(=O)OCC)C(c2ccc(Cl)cc2C)C2=C(CC(c3ccc(OC)c(OC)c3)OC2=O)N1 (mixture of isomers) | 0.03 µM | 0.022 µM |  | 
42 | COC(=O)C1=C(C)NC2=C(C(=O)OC(c3ccc(OC)c(OC)c3)C2)C1c1ccccc1Cl (stereo in doubt; 28B) | 0.798 µM | 0.417 µM |  | 
43 | COCC1=C(C(=O)OC)C(c2ccc(Cl)cc2)C2=C(CC(c3cc(OC)c(OC)c(OC)c3)OC2=O)N1 (stereo in doubt; 56B) | 0.029 µM | 0.0423 µM |  | 
44 | CCCOC(=O)C1=C(C)NC2=C(C(=O)OC(c3ccc(OC)c(OC)c3)C2)C1c1ccccc1Cl (stereo in doubt; 29B) | 0.458 µM | 0.332 µM |  | 
45 | COc1ccc(C2CC3=C(C(=O)O2)C(c2ccccc2Cl)C(C(=O)OC(C)(C)C)=C(C)N3)cc1OC (stereo in doubt; 30B) |  | 0.272 µM |  | 
46 | CCOC(=O)C1=C(C)NC2=C(C(=O)OC(c3ccc(OC)c(OC)c3)C2)C1c1ccc([N+](=O)[O-])cc1 (stereo in doubt; 13B) | 2.71 µM | 2.2 µM |  | 
47 | CCOC(=O)C1=C(C)NC2=C(C(=O)OC(c3ccc(OC)cc3)C2)C1c1ccccc1Cl (stereo in doubt; 26B) | 2.16 µM | 1.96 µM |  | 
48 | CCOC(=O)C1=C(C)NC2=C(C(=O)OC(c3ccc(OC)c(OC)c3)C2)C1c1ccccc1C (mixture of isomers) | 0.0727 µM | 0.123 µM |  | 
49 | CCOC(=O)C1=C(C)NC2=C(C(=O)OC(c3ccc(OC)c(OC)c3)C2)C1c1ccc(Cl)cc1 (stereo in doubt; 5) | 0.0918 µM | 0.16 µM |  | 
50 | CCCC1=C(C(=O)OCC)C(c2ccc(Cl)cc2C)C2=C(CC(c3cc(OC)ccc3OC)CC2=O)N1 (mixture of isomers) | 0.0551 µM | 0.0444 µM |  | 
51 | CCOC(=O)C1=C(C)NC2=C(C(=O)OC(c3cccc(OC)c3)C2)C1c1ccccc1Cl (mixture of isomers) | 2.42 µM | > 6 µM |  | 
52 | CCCC1=C(C(=O)OCC)C(c2ccc(Cl)cc2C)C2=C(CC(c3ccc(OC)c(OC)c3)CC2=O)N1 (mixture of isomers) | 0.0135 µM | 0.0241 µM |  | 
53 | CCOC(=O)C1=C(C)NC2=C(C(=O)CC(c3ccc(OC)c(OC)c3)C2)C1c1ccccc1Cl (stereo in doubt; 2B) | 0.0135 µM | 0.0157 µM |  | 
54 | CCOC(=O)C1=C(C)NC2=C(C(=O)OC(c3ccc(OC)c(OC)c3)C2)C1c1ccc(Br)cc1 (stereo in doubt; 12B) | 0.059 µM | 0.341 µM |  | 
55 | CCOC(=O)C1=C(C)NC2=C(C(=O)OC(c3ccc(OC)c(OC)c3)C2)C1c1ccc(C)cc1 (stereo in doubt; 8B) | 0.638 µM | 0.605 µM |  | 
56 | CCOC(=O)C1=C(C)NC2=C(C(=O)OC(c3ccc(OC)c(OC)c3)C2)C1c1ccccc1OC (mixture of isomers) | > 5.5 µM |  |  | 
57 | CCOC(=O)C1=C(c2ccccc2)NC2=C(C(=O)CC(c3ccc(OC)c(OC)c3)C2)C1c1ccccc1Cl (mixture of isomers) | 0.176 µM | 0.0923 µM |  | 
58 | CCOC(=O)C1=C(C)NC2=C(C(=O)OC(c3ccc(Cl)cc3)C2)C1c1ccccc1Cl (mixture of isomers) | > 5.5 µM | > 5.5 µM |  | 
59 | COc1ccc(C2CC(=O)C3=C(C2)NC(C)=C(C(=O)O)C3c2ccccc2Cl)cc1OC (stereo in doubt; 27B) | > 12 µM |  |  | 
